Laboratory results taken from patent publication US11897902B1, “Nano-sized mixed ligand [4-bromo-2-(quinolin-2-yliminomethyl)-phenol imine- phenanthroline] Ru(III) complex for medicinal applications” (KING FAISAL UNIVERSITY, priority 2023, dated 2024).
In brackets after ≈: the same amount, converted by molar mass. Each block holds one compound with its values, some of them ahead of it.

Columns and labels:
Format in all cases: cell-based
Aspergillus flavus = test: Antifungal activity, well diffusion method (inhibition zone, MIC)
Description: To evaluate antimicrobial activity, the fungal strain (Aspergillus flavus), was used. These strains were cultured in nutrient agar and Muller-Hinton medium. Fluconazole compound was used as a standard drug for comparison.
Antifungal activities of the prepared nano-complex were studied against three fungal cultures using well diffusion method. The tested fungi were inoculated in Sabouraud dextrose broth medium (Hi-Media Mumbai) and incubated at 35° C. for 72 h and subsequently a suspension of about 1.60×10^4-6.00×10^4 c.f.u/ml was introduced agar plates and a sterile glass spreader was used for even distribution of the inoculum. The discs measuring 6 mm in diameter were prepared from Whatman No. 1 filter paper and sterilized by dry heat at 140° C. for 1 h. The sterile discs previously soaked in known concentration of the tested compounds were placed in Sabouraud dextrose Agar (SDA) plates. The plates were inverted and incubated at 35° C. for 7 days. The susceptibility was assessed on the basis of diameter of inhibition against albicans and non-albicans strain of fungi.

Escherichia coli(−ve) = test: Antimicrobial activity, agar well diffusion (inhibition zone, MIC); settings: E. coli
Description: To evaluate antimicrobial activity, the bacterial strain Escherichia coli(−ve), was used. These strains were cultured in a nutrient agar and Muller-Hinton medium. Ofloxacin compound was used as a standard drug for comparison.
The susceptibilities of such growth rate of microorganisms were measured in vitro by agar well diffusion method. The tested nano complex was dissolved in dimethyl sulfoxide at different concentrations (10 and 20 mg/ml). 1 cm^3 of a 24 h broth culture containing 10^6 CFU/cm^3 was placed in sterile Petri-dishes. Molten nutrient agar (15 cm 3) maintained at 45° C. was then poured into the Petri-dishes and allowed to solidify. Then holes of 6 mm diameter were formed in the agar using a sterile cork borer and these holes were completely filled with the test solutions. The plates were incubated for 24 h at 37° C. After the incubation period, the zone of inhibition of each well was determined by measuring the zones of growth inhibition (mm) against the test microorganisms with zone reader (Hi Antibiotic zone scale). […] The measurements were made in triplicate for each compound and their average values are reported.

Breast cancer cells line = test: Cytotoxic activity, Sulfo-Rhodamine-B-stain (SRB); settings: Homo sapiens, breast cancer cell line, 48 hours
Description: The anticancer activity was made at the National Cancer Institute, Cancer Biology Department, Pharmacology Department, Cairo University. The absorbance or optical density (O.D.) of each well was measured spectrophotometrically at 564 (nm) with an “ELIZA” micro plate reader (Meter tech. Σ960, “USA”). Evaluation of the cytotoxic activity of the prepared nano-complex was carried out against Breast cancer cells line. The evaluation process was carried out in vitro using the Sulfo-Rhodamine-B-stain (SRB). Cells were placed in 96-multiwell plate (10^4 cells/well) for 24 hours before processing with the complexes to allow attachment of cell to the wall of the plate. Various concentrations of the compounds under test in DMSO (0, 1, 2.5, 5 and 10 μM) were added to the cell monolayer. Monolayer cells were incubated with the complexes for 48 hours at 37° C. and in atmosphere of 5% CO2. After 48 hours, cells were fixed, rinsed, and stained with Sulfo-Rhodamine-B-stain. Excess stain was washed with acetic acid and attached stain was treated with Tris EDTA buffer. Color intensity was measured in an ELISA reader. IC50 was evaluated and potency was calculated with regard to percentage of change of (vistabline standard). The relation between surviving fraction and compound concentration is plotted to get the survival curve of each tumor cell line after the specified compound. […]

- MIC (Aspergillus flavus): 2 µg/mL (≈ 6.53 µM)
Compound: OC(Cn1cncn1)(Cn1cncn1)c1ccc(F)cc1F [Fluconazol, Fluconazole]
- inhibition zone (Aspergillus flavus; well diffusion, 35° C. for 7 days): 24 mm

- MIC (Escherichia coli(−ve); Escherichia coli): 2.5 µg/mL (≈ 6.92 µM)
Compound: CC1COc2c(N3CCN(C)CC3)c(F)cc3c(=O)c(C(=O)O)cn1c23 (centres unmarked) [Ofloxacin]
- inhibition zone (Escherichia coli(−ve); agar well diffusion, 24 h at 37° C.): 35 mm

Compound: CC[C@]1(O)C[C@@H]2CN(CCc3c([nH]c4ccccc34)[C@@](C(=O)OC)(c3cc4c(cc3OC)N(C)[C@H]3[C@@](O)(C(=O)OC)[C@H](OC(C)=O)[C@]5(CC)C=CCN6CC[C@]43[C@@H]65)C2)C1 [vinblastine]
- IC50 (Breast cancer cells line): 4.5 µg/mL (≈ 5.55 µM)
